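Cultured in 96-well plates, cells were exposed to test compound for 48 hours across five concentrations. TGI denotes the concentration required for complete inhibition of growth.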
Key:
Experiment in all cases: NCI-60 cell line screen, 48 h
[1] = system: 786-0 renal
[2] = system: A498 renal
[3] = system: A549 NSCLC
[4] = system: ACHN renal
[5] = system: CAKI-1 renal
[6] = system: CCRF-CEM leukemia
[7] = system: COLO 205 colon
[8] = system: DLD-1 colon
[9] = system: DMS 114 small cell lung
[10] = system: DMS 273 small cell lung
[11] = system: EKVX NSCLC
[12] = system: HCC-2998 colon
[13] = system: HCT-116 colon
[14] = system: HCT-15 colon
[15] = system: HL-60(TB) leukemia
[16] = system: HOP-18 NSCLC
[17] = system: HOP-62 NSCLC
[18] = system: HOP-92 NSCLC
[19] = system: HT29 colon
[20] = system: IGROV1 ovarian
[21] = system: K-562 leukemia
[22] = system: KM12 colon
[23] = system: KM20L2 colon
[24] = system: LOX IMVI melanoma
[25] = system: LXFL 529 NSCLC
[26] = system: M14 melanoma
[27] = system: M19-MEL melanoma
[28] = system: MALME-3M melanoma
[29] = system: MOLT-4 leukemia
[30] = system: NCI-H226 lung
[31] = system: NCI-H23 lung
[32] = system: NCI-H460 lung
[33] = system: NCI-H522 lung
[34] = system: OVCAR-3 ovarian
[35] = system: OVCAR-4 ovarian
[36] = system: OVCAR-5 ovarian
[37] = system: OVCAR-8 ovarian
[38] = system: RPMI-8226 leukemia
[39] = system: RXF 393 renal
[40] = system: SF-268 CNS
[41] = system: SF-295 CNS
[42] = system: SF-539 CNS
[43] = system: SK-MEL-2 melanoma
[44] = system: SK-MEL-28 melanoma
[45] = system: SK-MEL-5 melanoma
[46] = system: SK-OV-3 ovarian
[47] = system: SN12C renal
[48] = system: SNB-19 CNS
[49] = system: SNB-78 CNS
[50] = system: SR leukemia
[51] = system: SW-620 colon
[52] = system: TK-10 renal
[53] = system: U251 CNS
[54] = system: UACC-257 melanoma
[55] = system: UACC-62 melanoma
[56] = system: UO-31 renal
[57] = system: XF 498 CNS

COc1cc2c(c(OC(C)=O)c1OC(C)=O)-c1ccc(SC)c(=O)cc1C(NC(C)=O)CC2 (configuration not stated)
TGI [1]: > 100 µM
TGI [2]: 56.7 µM
TGI [3]: > 100 µM
TGI [4]: > 100 µM
TGI [5]: > 100 µM
TGI [6]: 35.7 µM
TGI [7]: 3.13 µM
TGI [8]: > 100 µM
TGI [9]: 6.11 µM
TGI [10]: > 100 µM
TGI [11]: > 100 µM
TGI [12]: > 100 µM
TGI [13]: 17.5 µM
TGI [14]: > 100 µM
TGI [15]: 1.34 µM
TGI [16]: > 100 µM
TGI [17]: > 75.5 µM
TGI [18]: 7.29 µM
TGI [19]: > 44.8 µM
TGI [20]: > 100 µM
TGI [21]: 36.3 µM
TGI [22]: 12 µM
TGI [23]: 10.4 µM
TGI [24]: > 100 µM
TGI [25]: > 82.3 µM
TGI [26]: > 69.1 µM
TGI [27]: > 73.5 µM
TGI [28]: > 100 µM
TGI [29]: > 100 µM
TGI [30]: 15.1 µM
TGI [31]: 31.4 µM
TGI [32]: 20 µM
TGI [33]: 1.2 µM
TGI [34]: 2.43 µM
TGI [35]: > 100 µM
TGI [36]: > 100 µM
TGI [37]: 55.1 µM
TGI [38]: > 100 µM
TGI [39]: > 100 µM
TGI [40]: > 100 µM
TGI [41]: 10.1 µM
TGI [42]: 1.64 µM
TGI [43]: 7.07 µM
TGI [44]: > 100 µM
TGI [45]: 3.46 µM
TGI [46]: > 36 µM
TGI [47]: > 100 µM
TGI [48]: > 100 µM
TGI [49]: > 100 µM
TGI [50]: > 100 µM
TGI [51]: > 100 µM
TGI [52]: > 100 µM
TGI [53]: > 32 µM
TGI [54]: > 100 µM
TGI [55]: > 100 µM
TGI [56]: > 100 µM
TGI [57]: 42.4 µM

Source: PubChem BioAssay (NCI)
